Laboratory results from patent EP4772508A1, “MACROCYCLIC COMPOUND AND USE THEREOF” (Jiangsu Hengrui Pharmaceuticals Co., Ltd., priority 2023, dated 2025).
Read-outs that look alike come from different tables or passages of the source. Marks after values point to notes of the source that are not given here.

Columns and labels:
[1] = Relaxivity of the compound in water; format: physicochemical; conditions: deionized water
Experimental: Test example 1: Relaxivity of the compound in water
Niumag (Suzhou) Nuclear Magnetic Resonance Contrast Agent Relaxivity Analyser with a 0.5 T magnetic field
Bruker Small Animal Magnetic Resonance Imaging System (BioSpec 70/20 USR) with a 7 T magnetic field
1 mL of the test sample was placed in a 1.5 mL EP (eppendorf) tube, and the longitudinal relaxation time T1 and transverse relaxation time T2 under different magnetic field conditions were measured separately using the Niumag (Suzhou) Nuclear Magnetic Resonance Contrast Agent Relaxivity Analyser with a 0.5 T magnetic field. The test sample was loaded into a 0.2 mL sample tube until full, and the longitudinal relaxation time T1 and transverse relaxation time T2 under different magnetic field conditions were measured separately using the Bruker Small Animal Magnetic Resonance Imaging System (BioSpec 70/20 USR) with a 7 T magnetic field.
(§1) Based on the relaxation times T1 and T2 of samples at different concentrations, the relaxivities r1 and r2 were calculated respectively. The relaxivity was calculated according to the following equation: r = (1)/(ΔT)/C, [formula] r: relaxivity; T: relaxation time (s); C: contrast agent concentration (mM).

[2] = Relaxivity of compounds in human plasma; format: physicochemical; conditions: human plasma containing sodium heparin, 0.5 T
Experimental: as §1

[3] = Metal transfer stability test in the presence of zinc ions; format: physicochemical; conditions: equal volumes 2.5 mM contrast agent and 2.5 mM ZnCl2, phosphate buffer, 37°C, 0.5 T
Experimental: Test example 4: Metal transfer stability test of compounds in the presence of zinc ions • 1 . Experimental protocol • 2. […] Experiment instruments: VTMR20-010V-I Nuclear Magnetic Resonance Cross-Linking Density Imaging Analyser • 4. Experimental method
A 2.5 mM solution of contrast agent solutions and a 2.5 mM solution of zinc chloride were respectively prepared in phosphate buffer (0.026 mol/L KH2PO4 and 0.041 mol/L Na2HPO4). An equal volume of a 2.5 mM ZnCl2 solution was added to the a 2.5 mM gadolinium contrast agent solution, and the mixture was mixed by shaking. This moment of complete mixing was designated as time zero (t = 0). Immediately thereafter, a 0.5 mL aliquot was withdrawn and subjected to measurement of the longitudinal relaxation time, T1(0), at 37°C and a magnetic field strength of 0.5 T. The mixed solution was then incubated at 37°C. 0.5 mL of the solution was taken at time points of 5 min, 180 min, 1440 min and 5760 min, respectively, to determine T1(t) at different time points. The ratio of the relaxivity at different time points to the initial relaxivity at time 0, namely R1(t)/R1(0), was calculated.

[4] = test system: canine plasma proteins; conditions: dog, 1000 µM
Experimental: After the preparation of plasma samples, 0.5 mL of plasma samples were transferred into ultracentrifugation tubes, with 3 replicates per concentration. After incubation in a CO2 incubator at 37°C for 0.5 h, the samples were subjected to ultracentrifugation at 627,000 g for 3 hours at 37°C. After centrifugation, 100 µL of samples were taken from the central layer of the ultracentrifugation tubes and mixed with 100 µL of blank plasma. The samples were stored at -70°C for subsequent determination.
The plasma protein binding rates of analytes at different concentration levels were calculated using the following formulas: [formula] Binding rate% = 100%−Free rate%. [formula]

[5] = hydrochloric acid pH 1.2, 37°C, 8 × 10^-6 M, 0 h
[6] = hydrochloric acid, 24 h, 8 µM, pH 1.2
[7] = hydrochloric acid, 48 h, 8 µM, pH 1.2
[8] = hydrochloric acid, 96 h, 8 µM, pH 1.2

Substance | Relaxivity r1 ([1]; 0.5 T) | Relaxivity r1 ([1]; 7 T) | Gd^3+ Dissociation rate (%) [5] | Gd^3+ Dissociation rate (%) [6] | Gd^3+ Dissociation rate (%) [7] | Gd^3+ Dissociation rate (%) [8] | Relaxivity r1 [2] | R1(t)/R1(0) ([3]; 0 min) | R1(t)/R1(0) ([3]; 5 min) | R1(t)/R1(0) ([3]; 180 min) | R1(t)/R1(0) ([3]; 1440 min) | R1(t)/R1(0) ([3]; 5760 min) | Average% (binding rate) [4]
Gadobutrol | 4.4 mM⁻¹ s⁻¹ | 3.5 mM⁻¹ s⁻¹ | BLQ | 73.5% | 70.1% | 64.6% | 7.5 mM⁻¹ s⁻¹ | 1 | 0.93 | 0.82 | 0.96 | 0.90 | 
Gadodiamide |  |  |  |  |  |  |  | 1 | 1.07 | 0.59 | 0.59 | 0.38 | 
Gadopiclenol [RC1] | 11.7 mM⁻¹ s⁻¹ | 6.3 mM⁻¹ s⁻¹ | BLQ | 24.7% | 35.6% | 37.8% |  |  |  |  |  |  | 0* %
